Results from article PMC9228733, “Novel Radioiodinated and Radiofluorinated Analogues of FT-2102 for SPECT or PET Imaging of mIDH1 Mutant Tumours” (Molecules, 2022).
Read-outs that look alike come from different tables or passages of the source.

Key:
[1] = Stability of radiotracer at room temperature in ethanol, saline or DPBS (radio-HPLC); type: physicochemical
Protocol: To a solution of organotin precursor (S)-15 in methanol (50 µL, 1 mg/mL) were successively added [^125I]NaI (10-50 µL, 2.1–15.3 MBq), glacial acetic acid (2.5 µL), and a solution of CAT trihydrate (5 µL, 1 mg/mL). The reaction vial was sealed and stirred at room temperature for 5 min before addition of a solution of Na2S2O5 in deionised water (5 µL, 1 mg/mL). The reaction mixture was purified by semipreparative RP-HPLC. The collected fraction was further diluted with deionised water (10 mL) and passed through a Sep-Pak® Plus Light cartridge (beforehand conditioned successively with 10 mL of deionised water, 10 mL of methanol, and 10 mL of deionised water). The cartridge was washed with deionised water (2 mL) and dried with air before elution of the radioiodinated tracer (S)-[^125I]2 with ethanol (500 µL). The radiotracer was finally formulated in saline or DPBS (pH 7.4) to reach an ethanol content of ca. 5% for stability studies.
The aqueous solution of [^18F]F^− in [^18O]H2O was passed through an anion exchange resin (Sep-Pak® Light Accell Plus QMA carbonate cartridge) preconditioned with 10 mL of ethanol, 10 mL of an aqueous solution of lithium trifluoromethanesulfonate (90 mg/mL), and 10 mL of deionised water. Then, a solution of potassium carbonate (50 µg) and lithium trifluoromethanesulfonate (10 mg) in water (550 µL) was passed through the cartridge to elute the radioactivity to the reactor before addition of anhydrous ACN (1 mL). In such conditions, more than 97% of the radioactivity was usually recovered from the cartridge. The solution was dried by azeotropic distillation under reduced pressure and He flow at 100 °C for 12 min. After cooling to 25 °C, anhydrous DMA (2 mL) was added to the reactor. Then, 200 µL of the resulting solution (40–245 MBq, n = 10) was transferred in a glass vial equipped with a magnetic stirrer before addition of a solution of tetrakis(pyridine)copper(II) triflate (Cu(OTf)2(py)4, 14 mg, 20.6 µmol) in anhydrous DMA (250 µL) and a solution of the tin precursor (S)-15 (6.1 mg, 10.0 µmol) in anhydrous DMA (100 µL). The reaction mixture was stirred at 110 °C for 10 min. After cooling to 25 °C, deionised water (25 mL) was added, and the reaction mixture was passed through a Sep-Pak® C18 Plus Light cartridge preconditioned with 10 mL of deionised water, 10 mL of methanol, and 10 mL of deionised water. The cartridge was washed with deionised water (2 mL) and flushed with air before elution of the desired ^18F-labelled radiotracer with ACN (500 µL). For isolation of the radiotracer, the eluate was subjected to semipreparative RP-HPLC. The collected fraction was diluted with deionised water (25 mL) and passed through a Sep-Pak® C18 Plus Light cartridge preconditioned with 10 mL of deionised water, 10 mL of methanol, and 10 mL of deionised water. The cartridge was washed with deionised water (2 mL) and flushed with air before elution of the final (S)-[^18F]3 radiotracer with ethanol (500–600 µL). The radiotracer was finally formulated in saline or DPBS (pH 7.4) to reach an ethanol content of ca. 5% for stability studies.
(§1) Figure 7 Radioactivity-HPLC chromatograms of the radiotracer (S)-[^125I]2 incubated, for 1, 2, and 3 h post formulation, at room temperature in ethanol, NaCl 0.9% containing 5% ethanol, and DPBS (pH 7.4) containing 5% ethanol, as well as in a mixture of DPBS and mouse serum at 37 °C.
(§2) Figure 8 Radioactivity-HPLC chromatograms of the radiotracer (S)-[^18F]3 incubated, for 0, 1, and 2 h post formulation, at room temperature in ethanol, NaCl 0.9% containing 5% ethanol, and DPBS (pH 7.4) containing 5% ethanol, as well as in a mixture of DPBS and mouse serum at 37 °C.

[2] = Stability of radiotracer in mouse serum at 37 °C (radio-HPLC); type: in vitro ADME
Protocol: as §1, §2

mIDH1 = settings: cited from earlier work
IDH1 R132H = biological target: T1, IDH1 R132H (Homo sapiens, UniProt O75874, R132H); assay: Mutant IDH1 enzyme assay (diaphorase/resazurin), IDH1 R132H; type: biochemical; settings: for IC50: mean ± SD of at least three determinations
T1 construct: purchased BPS Bioscience BPS-79376
T1 sequence (O75874 whole entry R132H): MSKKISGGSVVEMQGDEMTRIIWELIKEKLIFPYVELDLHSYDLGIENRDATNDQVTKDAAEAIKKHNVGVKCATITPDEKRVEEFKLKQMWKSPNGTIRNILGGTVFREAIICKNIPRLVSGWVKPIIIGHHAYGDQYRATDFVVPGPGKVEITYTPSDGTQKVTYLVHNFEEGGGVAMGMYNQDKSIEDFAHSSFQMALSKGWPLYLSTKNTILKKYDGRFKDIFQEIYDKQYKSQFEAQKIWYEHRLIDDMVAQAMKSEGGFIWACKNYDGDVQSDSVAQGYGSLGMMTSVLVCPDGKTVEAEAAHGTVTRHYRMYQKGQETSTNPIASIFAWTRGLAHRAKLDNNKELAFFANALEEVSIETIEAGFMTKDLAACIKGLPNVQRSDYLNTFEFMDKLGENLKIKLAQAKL
Protocol: (§3) The amount of NADPH remaining at the end of the reaction time is measured in a secondary diaphorase/resazurin reaction in which the NADPH is consumed in a 1:1 molar ratio with the conversion of resazurin to the highly fluorescent resorufin. […] For inhibition assays, triplicate samples of the compounds in the concentration range from 10^−5 to 10^−10 M were incubated with the enzyme for 30 min prior to addition of α-KG and NADPH to initiate the reaction. The reaction ran for 60 min at room temperature and was terminated with the addition of 25 μL of Detection Buffer (36 μg/mL diaphorase, […]) to 50 µL of the reaction solution. […] The data were imported into GraphPad Prism 4.1 (GraphPad Inc.; La Jolla; CA, USA), and the IC50 values were calculated with a standard dose–response curve fitting (Figure S3).

IDH1 R132C = biological target: T2, IDH1 R132C (Homo sapiens, UniProt O75874, R132C); assay: Mutant IDH1 enzyme assay (diaphorase/resazurin), IDH1 R132C; type: biochemical; settings: mean ± SD of at least three determinations
T2 construct: purchased ActiveMotif ACM-31713
T2 sequence (O75874 whole entry R132C): as the sequence (O75874 whole entry R132H) above, with H132C counted along it
Protocol: as §3

wt IDH1 = biological target: T3, wt IDH1 (Homo sapiens, UniProt O75874); assay: wt IDH enzyme assay, wt IDH1; type: biochemical; settings: mean of at least three determinations
T3 construct: purchased abcam ab113858
T3 sequence (O75874 whole entry): as the sequence (O75874 whole entry R132H) above, with H132R counted along it
Protocol: (§4) wt IDH enzyme assay is a modified version of the assay used for mIDH1. With the conversion of isocitrate to α-KG, this enzyme stoichiometrically converts NADP to NADPH. The produced NADPH, which directly couples to the diaphorase/resazurin system and the resorufin production, can be measured. The protocols for the determination of inhibition of both wt IDH1 and wt IDH2 were conducted as described by Wang et al.. The wt IDH1 (ab113858) was purchased from abcam (Cambridge, UK), and the wt IDH2, from BPS Bioscience (San Diego, CA, USA).
Briefly, wt IDH1 assays were conducted in 50 µL buffer (20 mM TRIS buffer (pH = 7.5), 150 mM NaCl, 10 mM MgCl2, 0.05% BSA, and 4 mM β-mercaptoethanol) containing 50 µM NADP, 70 µM D/L-isocitrate, and 0.04 µg/mL wt IDH1 enzyme (reaction time 1 h at RT). For inhibition assays, triplicate samples of the compounds in the concentration range from 10^−5 to 10^−10 M were incubated with the wt IDH1 for 1 h before addition of D/L-isocitrate and NADP to initiate the reaction together with the direct detection system comprising 20 µg/mL diaphorase and 4 µM resazurin.

wt IDH2 = biological target: T4, wt IDH2 (Homo sapiens, UniProt P48735); assay: wt IDH enzyme assay, wt IDH2; type: biochemical; settings: mean of at least three determinations
T4 construct: purchased BPS Bioscience
T4 sequence (P48735 40-452): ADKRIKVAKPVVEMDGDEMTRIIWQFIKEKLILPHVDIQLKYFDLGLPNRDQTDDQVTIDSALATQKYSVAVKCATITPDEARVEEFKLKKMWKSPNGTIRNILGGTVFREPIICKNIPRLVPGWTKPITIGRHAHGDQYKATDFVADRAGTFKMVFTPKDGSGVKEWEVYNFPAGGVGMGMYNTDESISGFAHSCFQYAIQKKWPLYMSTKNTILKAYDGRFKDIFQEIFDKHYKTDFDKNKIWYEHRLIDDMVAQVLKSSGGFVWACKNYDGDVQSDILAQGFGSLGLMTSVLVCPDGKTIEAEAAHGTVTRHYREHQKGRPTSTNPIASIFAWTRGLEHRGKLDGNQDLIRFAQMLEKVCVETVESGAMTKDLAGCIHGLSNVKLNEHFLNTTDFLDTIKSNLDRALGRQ
Protocol: as §4
Assays for wt IDH2 were conducted in 50 µL buffer (20 mM TRIS buffer (pH = 7.5), 150 mM NaCl, 10 mM MgCl2, 0.05% BSA, and 4 mM β-mercaptoethanol) containing 50 µM NADP, 70 µM D/L-isocitrate, and 0.05 µg/mL wt IDH2 enzyme (reaction time 1 h at RT). For inhibition assays, triplicate samples of the compounds in the concentration range from 10^−5 to 10^−10 M were incubated with the wt IDH2 and NADP for 1 h before addition of D/L-isocitrate to initiate the reaction together with the direct detection system comprising 20 µg/mL diaphorase and 4 µM resazurin. The reaction was stopped by addition of 5 μL 10% SDS and read as described above. The data were imported into GraphPad Prism, and the IC50 values were calculated with a standard dose−response curve fitting.

[3] = phenyl-glycine scaffold, mixtures of stereoisomers, read-out: IC50 for mIDH1
[4] = butyl-phenyl sulfonamides, read-out: IC50

SMILES | IC50 (mIDH1; [3]) [nM] | IC50 (IDH1 R132H) [nM] | IC50 (IDH1 R132C) [nM] | IC50 (wt IDH1) [nM] | IC50 (wt IDH2) [nM] | further results
C[C@H](Nc1ccc(C#N)n(C)c1=O)c1cc2cc([18F])ccc2[nH]c1=O [(S)-[^18F]3] |  |  |  |  |  | RCP (stability) ([1]; DPBS (pH 7.4) containing 5% ethanol, over 2 h): > 99%; RCP (stability) ([1]; NaCl 0.9% containing 5% ethanol, over 2 h): > 99%; RCP (stability) ([1]; ethanolic solution from final C18 SPE cartridge, over 2 h): > 99%; RCP (stability) ([2]; 37 °C, over 2 h): > 99%
Cc1ccccc1C(C(=O)NC1CCCCC1)N(C(=O)Cn1ccnc1C)c1cccc([18F])c1 (stereo not shown) [III] | < 50 |  |  |  |  | 
Cc1ccccc1C(C(=O)NC1CCCCC1)N(C(=O)Cn1ccnc1C)c1cccc([125I])c1 (stereo not shown) [IV] | < 50 |  |  |  |  | 
C[C@H](Nc1ccc(C#N)n(C)c1=O)c1cc2cc(I)ccc2[nH]c1=O [(S)-2, (S)-5-{[1-(6-iodo-2-oxo-1,2-dihydroquinolin-3-yl)ethyl]-amino}-1-methyl-6-oxo-1,6-dihydropyridine-2-carbonitrile] |  | 5.23 ± 0.75 | 160 ± 24 | > 10000 | > 10000 | 
CCCCc1ccc(NS(=O)(=O)c2ccc(C)c(C(=O)N3CCN(c4ccccc4OCC[18F])CC3)c2)cc1 [VII] |  |  |  |  |  | IC50 (mIDH1; [4]): 2300 nM
C[C@H](Nc1ccc(C#N)n(C)c1=O)c1cc2cc(F)ccc2[nH]c1=O [(S)-3, (S)-5-{[1-(6-fluoro-2-oxo-1,2-dihydroquinolin-3-yl)ethyl]-amino}-1-methyl-6-oxo-1,6-dihydropyridine-2-carbonitrile] |  | 22.7 ± 5.2 | 579 ± 110 | > 10000 | > 10000 | decrease of inhibitory potency compared with iodinated compound (S)-2 (IDH1 R132H; IDH1 R132H): fourfold
Cc1ccccc1C(C(=O)NC1CCCCC1)N(C(=O)n1cnc2ccccc21)c1cccc([18F])c1 (stereo not shown) [II] | < 50 |  |  |  |  | 
N#Cc1ccnc(N2C(=O)CCC2C(=O)N(c2cncc([18F])c2)C(C(=O)NC2CC(F)(F)C2)c2ccccc2Cl)c1 (stereo not shown) [I] | < 50 |  |  |  |  | 
C[C@@H](Nc1ccc(C#N)n(C)c1=O)c1cc2cc(I)ccc2[nH]c1=O [(R)-2, (R)-5-{[1-(6-iodo-2-oxo-1,2-dihydroquinolin-3-yl)ethyl]-amino}-1-methyl-6-oxo-1,6-dihydropyridine-2-carbonitrile] |  | 323 ± 83 | > 10000 | > 10000 | > 10000 | 
C[C@H](Nc1ccc(C#N)n(C)c1=O)c1cc2cc([125I])ccc2[nH]c1=O [(S)-[^125I]2] |  |  |  |  |  | RCP (stability) ([1]; DPBS pH 7.4, room temperature, 3 h post formulation): 97.4%; RCP (stability) ([1]; ethanolic solution eluted after C18 SPE cartridge, room temperature, 3 h post formulation): 98.0%; RCP (stability) ([1]; formulation medium (saline, ca. 5% ethanol), room temperature, 3 h post formulation): 97.2%; RCP (stability) ([2]; 3 h at 37 °C): 94.3%
CCCCc1ccc(NS(=O)(=O)c2ccc(C)c(C(=O)N3CCN(c4ccccc4[125I])CC3)c2)cc1 [VI] |  |  |  |  |  | IC50 (mIDH1; [4]): 1700 nM
C[C@@H](Nc1ccc(C#N)n(C)c1=O)c1cc2cc(F)ccc2[nH]c1=O [(R)-3, (R)-5-{[1-(6-fluoro-2-oxo-1,2-dihydroquinolin-3-yl)ethyl]-amino}-1-methyl-6-oxo-1,6-dihydropyridine-2-carbonitrile] |  | 698 ± 145 | > 10000 | > 10000 | > 10000 | 
